Test results: the NIST ThermoML archive (doi:10.1021/je900034d)
Numbers after ± are expanded uncertainties.

How the values were obtained:
[1] = Crystal; DTA
[2] = Molar enthalpy of transition or fusion; conditions: Crystal; DSC

Row | Structure (SMILES) | Normal melting temperature [1] [°C] | Molar enthalpy of transition or fusion [2] [kJ/mol]
1 | c1cnc2c(c1)ccc1ncccc12 [1,5-diazaphenanthrene] | 77.2 ± 0.5 | 18.2 ± 0.7
2 | c1ccc(-c2ccncc2)nc1 [2,4'-bipyridine] | 59.7 ± 0.5 | 17.4 ± 0.9
3 | c1cnc2ccc3ncccc3c2c1 [4,7-phenanthroline] | 172.4 ± 0.5 | 21.8 ± 1.1
4 | c1ccc(-c2ccncn2)cc1 [4-phenylpyrimidine] | 61.0 ± 0.5 | 18.8 ± 0.7
5 | c1cc(-c2ccncc2)ccn1 [γ,γ'-bipyridyl] | 104.4 ± 0.5 | 16.1 ± 2
